Experimental data reported in patent US5985926A, “Method for inhibiting intracellular viral replication” (Cell Therapeutics, Inc., priority 1997, dated 1999).

System: CMV promoter in 293-EBNA cells
Assay: AP reporter gene expression from CMV promoter, 293-EBNA cells stably transfected with pCMV.AP
Type: cell-based, human cytomegalovirus; human cells
In short: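 293-EBNA cells carrying episomal pCMV.AP, expressing secreted placental alkaline phosphatase from the CMV enhancer/promoter, treated with various compound concentrations. Reporter expression read as change in A405 of conditioned medium with substrate such as ortho-nitrophenol phosphate.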

In the case of CCCCCCCCNCC(O)CCCCCCCCCN1C(=O)CCN(C)C1=O (centres unmarked) [CT1829, 3-(11-octylamino-10-hydroxyundecyl)-1-methyldihydrouracil], the IC50 (Homo sapiens, 293-EBNA, FIG. 8, read-out: concentration inhibiting AP activity by 50% (CMV assay)) is reported as 2 to 6 µM and the “inhibition of AP expression (CMV promoter)” value (in words) is reported as “inhibit CMV promoter driven expression”.
